In the assay the target is T1, bovine-milk-derived xanthine oxidase (XOD) (Bos taurus, UniProt P80457).
T1 construct: from tissue; host or cells: bovine milk
Description: Xanthine oxidase inhibitory activity (inhibition of uricogenesis from xanthine, absorbance at 292 nm). It is filed as biochemical. As to conditions: xanthine 100 μM, XOD 10 mU/ml, 50 mM phosphate buffer pH 7.4, 15 minutes, room temperature. How it is done:
Test Example: Xanthine oxidase inhibitory activity
Xanthine (100 μM), bovine-milk-derived xanthine oxidase (XOD) (10 mU/ml), and a test compound were mixed in 50 mM phosphate buffer (pH 7.4), and the mixture was incubated for 15 minutes at room temperature. Transformation of xanthine into uric acid was measured as the change in absorbance (O.D.) at 292 nm, to thereby investigate the inhibitory effect of the test compound against uricogenesis.
The inhibition ratio against uricogenesis was calculated from the following equation, and a dose-response curve of each compound was obtained.
Inhibition ratio against uricogenesis (%)=100-[(D-DB)/T]×100
T: O.D. of a solution of "xanthine+XOD"
D: O.D. of a solution of "test compound+xanthine+XOD"
DB: O.D. of a solution of "test compound+XOD"

For orientation: IC50 means the concentration that inhibits the measured activity by half. A high value points to weaker potency in that assay.

T1 sequence (P80457 whole entry): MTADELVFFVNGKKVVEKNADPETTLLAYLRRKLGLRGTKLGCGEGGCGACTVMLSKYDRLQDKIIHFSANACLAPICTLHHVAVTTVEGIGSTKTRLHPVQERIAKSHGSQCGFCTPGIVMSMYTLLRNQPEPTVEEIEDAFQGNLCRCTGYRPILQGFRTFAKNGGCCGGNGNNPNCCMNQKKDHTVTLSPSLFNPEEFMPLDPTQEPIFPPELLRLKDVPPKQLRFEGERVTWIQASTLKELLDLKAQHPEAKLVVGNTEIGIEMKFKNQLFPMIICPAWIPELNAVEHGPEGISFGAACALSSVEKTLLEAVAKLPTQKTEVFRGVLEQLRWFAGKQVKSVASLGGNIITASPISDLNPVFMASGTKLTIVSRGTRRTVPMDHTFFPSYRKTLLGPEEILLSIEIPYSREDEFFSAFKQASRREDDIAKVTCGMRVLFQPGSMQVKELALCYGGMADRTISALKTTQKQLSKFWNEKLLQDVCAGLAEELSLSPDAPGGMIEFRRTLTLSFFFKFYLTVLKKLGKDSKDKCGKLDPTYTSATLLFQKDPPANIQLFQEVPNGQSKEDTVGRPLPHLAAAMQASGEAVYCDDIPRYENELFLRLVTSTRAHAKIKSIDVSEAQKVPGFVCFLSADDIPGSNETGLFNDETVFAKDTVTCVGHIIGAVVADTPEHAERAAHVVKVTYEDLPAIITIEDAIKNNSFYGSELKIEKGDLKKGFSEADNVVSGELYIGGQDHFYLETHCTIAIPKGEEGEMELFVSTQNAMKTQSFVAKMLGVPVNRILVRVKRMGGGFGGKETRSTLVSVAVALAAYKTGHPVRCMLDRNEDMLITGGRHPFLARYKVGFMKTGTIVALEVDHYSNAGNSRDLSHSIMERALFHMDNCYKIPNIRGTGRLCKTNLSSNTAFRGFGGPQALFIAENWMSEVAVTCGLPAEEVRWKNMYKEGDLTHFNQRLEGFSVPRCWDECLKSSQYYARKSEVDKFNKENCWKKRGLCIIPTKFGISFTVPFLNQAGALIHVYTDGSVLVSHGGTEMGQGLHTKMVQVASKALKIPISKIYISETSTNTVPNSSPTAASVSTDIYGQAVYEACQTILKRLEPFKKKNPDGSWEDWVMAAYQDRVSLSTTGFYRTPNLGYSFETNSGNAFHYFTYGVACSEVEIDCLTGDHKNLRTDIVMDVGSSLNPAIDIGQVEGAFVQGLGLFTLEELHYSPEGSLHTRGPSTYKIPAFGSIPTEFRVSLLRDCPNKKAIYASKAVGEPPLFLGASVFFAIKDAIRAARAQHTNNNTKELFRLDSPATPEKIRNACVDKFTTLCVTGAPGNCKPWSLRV

As to `Cc1nnc2c3nc[nH]c3[nH]c(=S)n12` [Compound 5b, 3-methyl-7H-[1,2,4]triazolo[3,4-i]purine-5(6H)-thione], it took 7910 nM to reach half-maximal inhibition (IC50).

`Clc1ccc(C=NNc2nc(Cl)nc3[nH]cnc23)cc1` [Compound 3d, 2-chloro-6-p-chlorobenzylidenehydrazino-9H-purine] registered a half-maximal inhibitory concentration (IC50) of 927 nM. This IC50 lies about 8.5-fold lower than the previous one.

`COc1ccc(-c2nnc3c4nc[nH]c4[nH]c(=S)n23)cc1` [Compound 5d, 3-p-methoxyphenyl-7H-[1,2,4]triazolo[3,4-i]purine-5(6H)-thione] displayed a concentration for half-maximal inhibition (IC50) of 3020 nM.

On to `CN(C)c1ccc(C=NNc2nc(Cl)nc3[nH]cnc23)cc1` [Compound 3f, 2-chloro-6-p-N,N-dimethylaminobenzylidenehydrazino-9H-purine], for which 2320 nM corresponded to half-maximal inhibition (IC50).

The compound `S=c1nc(NN=Cc2ccc3c(c2)OCO3)c2nc[nH]c2[nH]1` [Compound 17e, 6-(3,4-methylenedioxybenzylidenehydrazino)-9H-purine-2(3H)-thione] came in with a concentration for half-maximal inhibition (IC50) of 235 nM.

Compound `COc1ccc(C=NN(C)c2nc(=S)[nH]c3[nH]cnc23)cc1` [Compound 19a, 6-[2-(4-methoxybenzylidene)-1-methylhydrazino]-9H-purine-2(3H)-thione] displayed a half-inhibitory concentration (IC50) of 681 nM. Against the preceding compound, the IC50 is about 2.9-fold higher.

The compound `CN(C)c1ccc(C=NNc2nc(=S)[nH]c3[nH]cnc23)cc1` [Compound 17b, 6-p-N,N-dimethylaminobenzylidenehydrazino-9H-purine-2(3H)-thione] returned an IC50 of 865 nM.

As for `Clc1nc(NN=Cc2ccccc2)c2nc[nH]c2n1` [Compound 3b, 6-benzylidenehydrazino-2-chloro-9H-purine], half-maximal inhibition (IC50) was put at 2710 nM.

`COc1ccc(C=NNc2nc(Cl)nc3[nH]cnc23)cc1` [Compound 3e, 2-chloro-6-p-methoxybenzylidenehydrazino-9H-purine]: the IC50 was 801 nM.

In turn, `O=[N+]([O-])c1ccc(C=NNc2nc(=S)[nH]c3[nH]cnc23)cc1` [Compound 17c, 6-p-nitrobenzylidenehydrazino-9H-purine-2(3H)-thione] returned an IC50 of 1180 nM.

Turning to `Clc1nc(NN=Cc2ccc3c(c2)OCO3)c2nc[nH]c2n1` [Compound 3g, 2-chloro-6-(3,4-methylenedioxybenzylidenehydrazino)-9H-purine], half-maximal inhibition (IC50) was put at 1150 nM.

As to `Fc1ccc(C=NNc2nc(Cl)nc3[nH]cnc23)cc1` [Compound 3c, 2-chloro-6-p-fluorobenzylidenehydrazino-9H-purine], the IC50 was 1960 nM.

Regarding `O=c1[nH]c2[nH]cnc2c2nnc(-c3ccc(Cl)cc3)n12` [Compound 11e, 3-p-chlorophenyl-7H-[1,2,4]triazolo[3,4-i]purine-5(6H)-one], the IC50 is 156 nM.

For the compound `COc1ccc(C=NNc2nc(=S)[nH]c3[nH]cnc23)cc1` [Compound 17d, 6-p-methoxybenzylidenehydrazino-9H-purine-2(3H)-thione], inhibition was half-maximal at 969 nM (IC50).

`O=c1[nH]c2[nH]cnc2c2nnc(-c3ccccc3)n12` [Compound 11c, 3-phenyl-7H-[1,2,4]triazolo[3,4-i]purine-5(6H)-one] came in with a half-maximal inhibitory concentration (IC50) of 2570 nM.

In turn, `S=c1[nH]c2[nH]cnc2c2nnc(-c3ccccc3)n12` [Compound 5c, 3-phenyl-7H-[1,2,4]triazolo[3,4-i]purine-5(6H)-thione] returned an IC50 of 2950 nM.

For the compound `CN(N=Cc1ccc(F)cc1)c1nc(=S)[nH]c2[nH]cnc12` [Compound 19b, 6-[2-(4-fluorobenzylidene)-1-methylhydrazino]-9H-purine-2(3H)-thione], half-maximal inhibition (IC50) required 667 nM.

`Fc1ccc(C=NNc2nc(=S)[nH]c3[nH]cnc23)cc1` [Compound 17a, 6-p-fluorobenzylidenehydrazino-9H-purine-2(3H)-thione] displayed an IC50 of 336 nM.

In the case of `Oc1ccc(C=NNc2nc(Cl)nc3[nH]cnc23)cc1` [Compound 3i, 2-chloro-6-p-hydroxybenzylidenehydrazino-9H-purine], the IC50 turned out to be 764 nM. This IC50 lies about 2.3-fold higher than the previous one.

The record behind these values is patent US5990118A, “Purine compounds and xanthine oxidase inhibitors” (Yamasa Corporation, priority 1995, dated 1999).
